Test results reported in ChEMBL document CHEMBL1201862, “PubChem BioAssay data set” (2004).
Active and inactive are the calls of the source.

How the values were obtained:
[1] = molecular target: Cytochrome P450 2D6 (Homo sapiens, UniProt P10635); test: qHTS Assay for Inhibitors and Substrates of Cytochrome P450 2D6. [Related pubchem assays: 410 ]; assay type: ADME; details: read-out: Potency
[2] = molecular target: Cytochrome P450 3A4 (Homo sapiens, UniProt P08684); details: Potency;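 also: confirmatory qHTS run detecting inhibitors and substrates of CYP3A4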
[3] = molecular target: Cytochrome P450 2C9 (Homo sapiens, UniProt P11712); details: Potency
[4] = molecular target: Peroxisome proliferator-activated receptor gamma/Nuclear receptor coactivator 2 (Homo sapiens, UniProt P37231); test: (§1) TR-FRET dose response biochemical High Throughput Screening assay for agonists of the steroid receptor coactivator 2 (SRC-2) recruitment by the peroxisome proliferator-activated receptor gamma (PPAR gamma): non-selective agonists. [Related pubchem assays: 1297, 1032 ]; assay type: functional
[5] = molecular target: Peroxisome proliferator-activated receptor gamma/Nuclear receptor coactivator 1 (Homo sapiens, UniProt P37231); test: as §1, with “1 (SRC-1)” for “2 (SRC-2)”, “assays (depositor defined):AID1300, AID1808, AID504735, AID631]” for “assays: 1297, 1032 ]”; assay type: protein assay
[6] = molecular target: Peroxisome proliferator-activated receptor gamma/Nuclear receptor coactivator 3 (Homo sapiens, UniProt P37231); test: as §1, with “3 (SRC-3)” for “2 (SRC-2)”, “1301 (Confirmation screen.), 1048 (Primary screen.)]” for “1297, 1032 ]”; assay type: functional
[7] = molecular target: Eukaryotic translation initiation factor 4E (Mus musculus, UniProt P63073); test: eIF4E–eIF4G protein interaction inhibitors, dose response, biochemical, TR-FRET (AID 855); assay type: functional;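 also: potency for disrupting eIF4E binding to eIF4GI seen as loss of FRET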
[8] = molecular target: Aminopeptidase N (Plasmodium falciparum FcB1/Columbia, UniProt O96935); test: P. falciparum M1AAP inhibitors, biochemical, fluorogenic H-Leu-NHMec substrate, 1536-well (AID 1445); set-up: species or system Plasmodium falciparum 3D7, 3D7
[9] = molecular target: ATP-dependent molecular chaperone HSP82 (Candida albicans (strain WO-1) (Yeast), UniProt C4YTQ8); test: loss of DOC-induced GRE-beta-galactosidase reporter signal, dose response, Hsp90 inhibitor project, S. cerevisiae, luminescence (AID 2400); assay type: functional, cell-based;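 also: beta-galactosidase luminescence from glucocorticoid response element reporter as proxy for Hsp90 function; inhibitor potency where signal loss means Hsp90 inhibition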
[10] = C. albicans growth with fluconazole, confirmation, fluorescence, retest (AID 2467); assay type: functional, cell-based
[11] = molecular target: T1, Serine/threonine-protein phosphatase (Candida dubliniensis (strain CD36 / CBS 7987 / NCPF 3949 / NRRLY-17841) (Yeast), UniProt B9W6M3); test: calcineurin pathway inhibitors in yeast reporter, dose response, S. cerevisiae, CDRE-lacZ, luminescence, secondary (AID 2388); assay type: functional, cell-based;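 also: yeast reporter cells carrying a calcineurin-responsive lacZ construct stimulated with calcium chloride; luminescent beta-galactosidase reporter signal in whole cells rather than isolated phosphatase activity; potency for inhibition where a drop in reporter signal means calcineurin blockade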
T1 sequence (B9W6M3 whole entry): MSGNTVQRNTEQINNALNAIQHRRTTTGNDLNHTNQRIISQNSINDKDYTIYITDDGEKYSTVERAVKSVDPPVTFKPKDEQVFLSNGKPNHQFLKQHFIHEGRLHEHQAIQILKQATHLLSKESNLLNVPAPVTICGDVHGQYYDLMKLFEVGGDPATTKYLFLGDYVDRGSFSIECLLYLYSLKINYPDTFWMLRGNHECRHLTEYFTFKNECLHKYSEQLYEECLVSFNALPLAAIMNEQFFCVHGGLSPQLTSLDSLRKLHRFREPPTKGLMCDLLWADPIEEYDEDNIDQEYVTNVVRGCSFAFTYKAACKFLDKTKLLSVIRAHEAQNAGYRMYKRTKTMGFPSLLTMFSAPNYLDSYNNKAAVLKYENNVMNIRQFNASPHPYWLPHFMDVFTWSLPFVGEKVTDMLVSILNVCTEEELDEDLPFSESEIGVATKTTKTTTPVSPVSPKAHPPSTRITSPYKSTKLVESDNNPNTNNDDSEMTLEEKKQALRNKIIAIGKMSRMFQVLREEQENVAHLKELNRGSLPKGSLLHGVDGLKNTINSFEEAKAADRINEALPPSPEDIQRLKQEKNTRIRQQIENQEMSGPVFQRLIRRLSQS

[12] = NIH-3T3 fibroblast cytotoxicity, dose response, cytotoxicity control, cell-based, fluorescence, Alamar Blue, secondary assay (AID 2327); assay type: functional;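 also: NIH-3T3 mouse fibroblasts cultured with fluconazole at 8 µg/mL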
[13] = molecular target: Troponin, cardiac muscle (Homo sapiens, UniProt P19429+P45379+P63316); test: Fluorescence-based biochemical high throughput dose response assay for activators of the calcium sensitivity of cardiac Regulated Thin Filaments (RTF). [Related pubchem assays (depositor defined):AID493008, AID493018, AID504382, AID504383]; assay type: protein-complex assay
[14] = molecular target: Beta-lactamase (Pseudomonas aeruginosa, UniProt Q79MP6);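 also: biochemical dose-response test of metallo-beta-lactamase enzyme inhibition, read out by epi-absorbance; purified recombinant IMP-1 metallo-beta-lactamase with nitrocefin as substrate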
[15] = molecular target: Beta-lactamase (Salmonella choleraesuis (strain SC-B67), UniProt Q5J463)
[16] = molecular target: Melanin-concentrating hormone receptor 1 (Homo sapiens, UniProt Q99705); test: Fluorescence-based counterscreen for antagonists of the G-protein coupled receptor 7 (GPR7): cell-based high throughput dose response assay to identify antagonists of the melanin-concentrating hormone receptor 1 (MCHR1).; assay type: functional

Chain of Peroxisome proliferator-activated receptor gamma/Nuclear receptor coactivator 1 (P37231 whole entry): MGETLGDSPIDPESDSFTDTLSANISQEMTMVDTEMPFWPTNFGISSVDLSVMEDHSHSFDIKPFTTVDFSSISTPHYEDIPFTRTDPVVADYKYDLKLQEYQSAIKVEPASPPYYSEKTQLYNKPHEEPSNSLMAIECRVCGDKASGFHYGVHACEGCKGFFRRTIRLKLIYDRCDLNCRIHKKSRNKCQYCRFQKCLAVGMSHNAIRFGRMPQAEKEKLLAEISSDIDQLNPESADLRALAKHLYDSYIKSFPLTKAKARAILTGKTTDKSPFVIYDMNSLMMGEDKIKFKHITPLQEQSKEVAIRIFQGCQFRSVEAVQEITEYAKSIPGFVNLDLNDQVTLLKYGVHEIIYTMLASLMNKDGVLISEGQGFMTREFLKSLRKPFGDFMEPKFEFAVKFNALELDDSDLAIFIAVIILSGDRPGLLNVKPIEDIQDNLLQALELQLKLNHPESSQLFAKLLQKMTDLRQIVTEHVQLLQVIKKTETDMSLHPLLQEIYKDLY
Chain of Peroxisome proliferator-activated receptor gamma/Nuclear receptor coactivator 1 (Q15788 whole entry, further chain): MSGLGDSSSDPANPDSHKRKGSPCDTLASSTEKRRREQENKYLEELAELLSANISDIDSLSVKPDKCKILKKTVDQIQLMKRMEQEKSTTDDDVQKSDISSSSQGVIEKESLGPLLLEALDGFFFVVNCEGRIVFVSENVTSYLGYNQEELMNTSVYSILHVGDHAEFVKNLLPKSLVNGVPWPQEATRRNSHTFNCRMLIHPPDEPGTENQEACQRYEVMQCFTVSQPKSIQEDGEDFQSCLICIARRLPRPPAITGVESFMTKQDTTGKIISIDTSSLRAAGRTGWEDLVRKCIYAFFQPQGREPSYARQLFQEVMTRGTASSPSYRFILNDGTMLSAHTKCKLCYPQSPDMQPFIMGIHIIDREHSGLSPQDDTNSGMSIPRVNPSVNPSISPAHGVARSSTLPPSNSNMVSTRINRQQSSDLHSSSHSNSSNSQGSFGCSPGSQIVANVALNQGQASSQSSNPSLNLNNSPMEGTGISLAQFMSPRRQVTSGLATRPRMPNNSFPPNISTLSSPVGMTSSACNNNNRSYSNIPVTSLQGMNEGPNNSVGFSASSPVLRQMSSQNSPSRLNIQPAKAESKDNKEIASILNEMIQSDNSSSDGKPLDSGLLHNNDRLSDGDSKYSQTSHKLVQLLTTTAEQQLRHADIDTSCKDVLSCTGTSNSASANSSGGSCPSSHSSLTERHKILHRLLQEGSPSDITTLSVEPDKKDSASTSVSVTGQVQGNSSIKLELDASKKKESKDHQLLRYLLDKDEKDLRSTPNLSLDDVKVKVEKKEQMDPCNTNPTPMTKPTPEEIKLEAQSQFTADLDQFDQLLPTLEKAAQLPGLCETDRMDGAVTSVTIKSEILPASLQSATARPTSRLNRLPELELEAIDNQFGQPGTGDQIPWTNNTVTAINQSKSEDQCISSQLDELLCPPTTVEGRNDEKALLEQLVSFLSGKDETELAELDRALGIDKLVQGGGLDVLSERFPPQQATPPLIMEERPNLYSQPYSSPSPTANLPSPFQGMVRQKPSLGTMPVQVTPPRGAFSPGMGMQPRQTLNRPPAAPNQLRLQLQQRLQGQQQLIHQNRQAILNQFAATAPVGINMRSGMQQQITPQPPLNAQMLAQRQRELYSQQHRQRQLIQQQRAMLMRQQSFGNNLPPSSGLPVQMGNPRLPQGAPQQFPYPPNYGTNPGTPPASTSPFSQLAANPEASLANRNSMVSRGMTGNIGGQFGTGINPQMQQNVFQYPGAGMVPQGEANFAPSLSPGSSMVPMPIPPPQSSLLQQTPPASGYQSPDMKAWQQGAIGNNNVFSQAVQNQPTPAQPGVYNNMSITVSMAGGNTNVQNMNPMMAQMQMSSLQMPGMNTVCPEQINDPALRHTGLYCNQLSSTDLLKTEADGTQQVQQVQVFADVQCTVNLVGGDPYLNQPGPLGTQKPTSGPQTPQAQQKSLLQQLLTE
Chain of Peroxisome proliferator-activated receptor gamma/Nuclear receptor coactivator 3 (P37231 whole entry): as the sequence (P37231 whole entry) above
Chain of Peroxisome proliferator-activated receptor gamma/Nuclear receptor coactivator 3 (Q9Y6Q9 whole entry, further chain): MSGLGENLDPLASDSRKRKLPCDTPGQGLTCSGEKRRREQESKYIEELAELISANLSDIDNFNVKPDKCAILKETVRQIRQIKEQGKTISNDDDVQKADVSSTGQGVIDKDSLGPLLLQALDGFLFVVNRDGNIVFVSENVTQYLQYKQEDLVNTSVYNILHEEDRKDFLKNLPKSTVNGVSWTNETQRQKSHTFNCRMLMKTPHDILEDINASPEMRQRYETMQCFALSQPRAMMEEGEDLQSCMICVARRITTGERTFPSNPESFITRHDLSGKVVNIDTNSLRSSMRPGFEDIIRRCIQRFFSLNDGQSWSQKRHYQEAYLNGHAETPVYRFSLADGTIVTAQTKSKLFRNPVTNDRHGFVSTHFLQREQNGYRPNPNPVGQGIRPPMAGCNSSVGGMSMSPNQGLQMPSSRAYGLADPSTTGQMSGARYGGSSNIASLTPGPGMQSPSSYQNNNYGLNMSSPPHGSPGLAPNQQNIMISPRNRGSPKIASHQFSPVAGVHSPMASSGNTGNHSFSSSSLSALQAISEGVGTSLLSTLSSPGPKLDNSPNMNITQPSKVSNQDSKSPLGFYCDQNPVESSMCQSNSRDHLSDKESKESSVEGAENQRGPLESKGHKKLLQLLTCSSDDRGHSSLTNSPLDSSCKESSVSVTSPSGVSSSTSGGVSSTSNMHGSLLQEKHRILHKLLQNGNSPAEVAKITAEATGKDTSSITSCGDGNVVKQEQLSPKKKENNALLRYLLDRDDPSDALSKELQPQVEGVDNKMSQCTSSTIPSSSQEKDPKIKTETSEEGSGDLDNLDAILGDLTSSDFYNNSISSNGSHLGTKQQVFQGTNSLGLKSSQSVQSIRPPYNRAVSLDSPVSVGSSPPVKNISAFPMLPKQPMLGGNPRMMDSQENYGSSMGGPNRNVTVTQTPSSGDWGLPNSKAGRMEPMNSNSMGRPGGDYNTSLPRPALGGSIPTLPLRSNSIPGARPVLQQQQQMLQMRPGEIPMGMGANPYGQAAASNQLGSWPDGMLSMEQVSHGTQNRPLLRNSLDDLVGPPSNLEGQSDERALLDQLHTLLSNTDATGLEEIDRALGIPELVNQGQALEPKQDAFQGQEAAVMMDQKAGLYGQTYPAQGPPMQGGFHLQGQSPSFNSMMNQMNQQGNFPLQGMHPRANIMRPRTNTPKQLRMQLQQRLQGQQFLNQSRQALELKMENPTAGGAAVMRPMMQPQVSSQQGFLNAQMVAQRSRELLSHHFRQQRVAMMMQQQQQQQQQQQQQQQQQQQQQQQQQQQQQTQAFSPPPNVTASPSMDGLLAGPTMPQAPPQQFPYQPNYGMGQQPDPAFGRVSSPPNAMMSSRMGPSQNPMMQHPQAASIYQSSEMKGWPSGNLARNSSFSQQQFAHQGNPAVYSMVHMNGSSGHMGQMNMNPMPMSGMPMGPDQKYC
Chain of Cytochrome P450 3A4 (P08684 whole entry): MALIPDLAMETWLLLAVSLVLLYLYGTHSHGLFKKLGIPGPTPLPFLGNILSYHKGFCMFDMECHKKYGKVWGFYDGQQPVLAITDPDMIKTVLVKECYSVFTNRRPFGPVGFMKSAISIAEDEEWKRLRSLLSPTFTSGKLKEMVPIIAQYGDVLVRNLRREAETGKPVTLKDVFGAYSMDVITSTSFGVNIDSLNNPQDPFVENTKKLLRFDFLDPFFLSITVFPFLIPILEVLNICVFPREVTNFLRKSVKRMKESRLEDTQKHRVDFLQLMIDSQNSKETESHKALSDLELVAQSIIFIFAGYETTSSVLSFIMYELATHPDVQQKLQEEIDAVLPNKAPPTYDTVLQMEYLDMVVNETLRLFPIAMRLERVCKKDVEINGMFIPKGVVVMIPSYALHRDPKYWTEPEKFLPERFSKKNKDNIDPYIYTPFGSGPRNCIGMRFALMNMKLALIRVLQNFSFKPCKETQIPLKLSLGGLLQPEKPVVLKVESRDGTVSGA
Chain of Cytochrome P450 2C9 (P11712 whole entry): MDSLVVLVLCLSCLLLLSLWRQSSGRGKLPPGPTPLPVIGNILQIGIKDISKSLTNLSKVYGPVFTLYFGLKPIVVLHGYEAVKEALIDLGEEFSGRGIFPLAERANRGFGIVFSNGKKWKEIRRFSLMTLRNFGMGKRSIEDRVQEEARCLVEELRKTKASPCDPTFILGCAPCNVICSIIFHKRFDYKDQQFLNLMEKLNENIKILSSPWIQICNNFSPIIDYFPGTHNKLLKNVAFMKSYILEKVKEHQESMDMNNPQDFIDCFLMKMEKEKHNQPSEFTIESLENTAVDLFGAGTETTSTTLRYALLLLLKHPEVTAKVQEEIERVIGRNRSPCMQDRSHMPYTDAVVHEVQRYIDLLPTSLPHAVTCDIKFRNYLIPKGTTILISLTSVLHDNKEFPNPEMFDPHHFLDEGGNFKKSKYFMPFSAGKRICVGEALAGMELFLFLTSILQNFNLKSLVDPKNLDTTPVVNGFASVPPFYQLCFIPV

With `CC1CCC2C(=O)OC(CN3C(=O)c4ccccc4C3=O)CN2C1c1ccc(Br)cc1` (stereo unspecified) the AC50 [1] was 3.16 µM (inconclusive), the AC50 [2] was 3.98 µM (inconclusive) and the AC50 [3] was 3.16 µM (inconclusive).
In the case of `Sc1n[nH]c(-c2cc(Cl)ccc2Cl)n1`, the EC50 [4] is reported as > 26.5 µM (not active), the EC50 [5] is reported as > 79.4 µM (inactive) and the EC50 [6] is reported as > 79.4 µM (not active).
For `COC(=O)c1c(C)cc(OC(C)=O)c(C)c1OC(C)=O`, the IC50 [7] was > 64 µM (inactive).
With `CCn1c(O)c(N=NC(=O)c2cccs2)c2ccccc21` the IC50 [8] was 70.2 µM (active), the EC50 [9] was 31.2 µM (active) and the EC50 [10] was 1.09 µM (active). For the same compound, the EC50 [11] was > 180 µM (inactive) and the EC50 [12] was 43.6 µM (active).
With `CN(/N=C/c1ccc(-c2ccc([N+](=O)[O-])cc2)o1)c1ccccc1` the EC50 [13] was 1.44 µM (active), the IC50 [14] was > 59.6 µM (inactive) and the IC50 [15] was > 59.6 µM (inactive).
For `CCn1c(=O)cc(SCC(=O)Nc2ccc(Cl)cc2)c2ccccc21`, the EC50 [4] was > 79.4 µM (not active), the EC50 [5] was > 79.4 µM (inactive) and the EC50 [6] was > 79.4 µM (not active).
In the case of `CN1CCN(c2ccccc2NC(=O)Cc2ccc(Cl)cc2)CC1`, the IC50 [16] is reported as 36 µM (not active).
With `CCOC(=O)OCC1OC(C#Cc2ccc(Br)cc2)C=CC1OC(=O)OCC` (stereo unspecified) the AC50 [2] was 3.98 µM (inconclusive) and the AC50 [3] was 2.51 µM (inconclusive).
